Laboratory results published in article PMC2709206 (The Journal of neuroscience : the official journal of the …, 2008).
“And” between values parts separate entries of the source, which are not always exact repeats. Equal values may be shown once. Read-outs that look alike come from different tables or passages of the source.

Tests used:
[1] = system: DRG neurons from trpa1-/- mice; assay: Calcium imaging of DRG neurons from trpa1-/- mice; format: cell-based; conditions: trpa1-/- mouse DRG neurons; percentage of response to 50 mM KCl
rat DRG neurons [2] = assay: Calcium imaging of rat DRG neurons; format: cell-based; conditions: for capsaicin-sensitive DRG neurons that responded: 4-HNE 30 μM, 4-ONE 3 μM
[3] = system: DRG neurons from trpa1+/+ mice; assay: Calcium imaging of DRG neurons from trpa1+/+ mice; format: cell-based; conditions: trpa1+/+ mouse DRG neurons; percentage of response to 50 mM KCl
mouse TRPA1 [4] = target: T1, mouse TRPA1 (Mus musculus, UniProt Q8BLA8); assay: Voltage-clamp electrophysiology of TRPA1 CHO cells; format: cell-based; conditions: for membrane current in TRPA1 CHO cells: whole-cell, holding potential -60 mV
mouse TRPA1 [5] = target: T1, mouse TRPA1; assay: [Ca2+]i increase in TRPA1-expressing CHO cells; format: cell-based; conditions: for [Ca2+]i-increase in TRPA1 CHO cells: at concentrations <50 μM, data not shown; for TRPA1 activation: Rose Bengal at 5 μM, supplemental Fig. 2
untransfected CHO cells = assay: Responses; format: cell-based, Chinese hamster; conditions: data not shown
human TRPV1 = human TRPV1 (Homo sapiens, UniProt Q8NER1); assay: Responses in CHO cells expressing TRPV1; format: cell-based; conditions: data not shown
wild-type mice = assay: Nocifensive/pain behaviour after intraplantar injection, wild-type mice; format: in vivo, mouse; conditions: intraplantar 2.2 μmol H2O2 or 32 nmol 15d-PGJ2 in 25 μl, 3 min
trpa1-/- mice = assay: Nocifensive/pain behaviour after intraplantar injection, trpa1-/- mice; format: in vivo, mouse; conditions: intraplantar 2.2 μmol H2O2 or 32 nmol 15d-PGJ2 in 25 μl, 3 min, compared with wild-type
rat nodose neurons = assay: Calcium imaging of rat nodose ganglion neurons; format: cell-based; conditions: for percentage of rat nodose neurons responding with [Ca2+]i increase: positive = at least 15% of response to 50 mM KCl, H2O2 5 mM, AITC 50 μM
[6] = system: DRG neurons from wild-type mice; assay: Calcium imaging of DRG neurons from wild-type mice; format: cell-based, mouse; conditions: wild-type mice (134 of 445)
[7] = system: DRG neurons from trpv1-/- mice; assay: Calcium imaging of DRG neurons from trpv1-/- mice; format: cell-based, mouse; conditions: trpv1-/- mice (113 of 355)
DRG neurons = assay: Whole-cell voltage clamp of DRG neurons; format: cell-based, rat; conditions: voltage ramp
rat DRG neurons [8] = conditions: ref Andersson et al., 2007; cited from earlier work

T1 sequence (Q8BLA8 whole entry): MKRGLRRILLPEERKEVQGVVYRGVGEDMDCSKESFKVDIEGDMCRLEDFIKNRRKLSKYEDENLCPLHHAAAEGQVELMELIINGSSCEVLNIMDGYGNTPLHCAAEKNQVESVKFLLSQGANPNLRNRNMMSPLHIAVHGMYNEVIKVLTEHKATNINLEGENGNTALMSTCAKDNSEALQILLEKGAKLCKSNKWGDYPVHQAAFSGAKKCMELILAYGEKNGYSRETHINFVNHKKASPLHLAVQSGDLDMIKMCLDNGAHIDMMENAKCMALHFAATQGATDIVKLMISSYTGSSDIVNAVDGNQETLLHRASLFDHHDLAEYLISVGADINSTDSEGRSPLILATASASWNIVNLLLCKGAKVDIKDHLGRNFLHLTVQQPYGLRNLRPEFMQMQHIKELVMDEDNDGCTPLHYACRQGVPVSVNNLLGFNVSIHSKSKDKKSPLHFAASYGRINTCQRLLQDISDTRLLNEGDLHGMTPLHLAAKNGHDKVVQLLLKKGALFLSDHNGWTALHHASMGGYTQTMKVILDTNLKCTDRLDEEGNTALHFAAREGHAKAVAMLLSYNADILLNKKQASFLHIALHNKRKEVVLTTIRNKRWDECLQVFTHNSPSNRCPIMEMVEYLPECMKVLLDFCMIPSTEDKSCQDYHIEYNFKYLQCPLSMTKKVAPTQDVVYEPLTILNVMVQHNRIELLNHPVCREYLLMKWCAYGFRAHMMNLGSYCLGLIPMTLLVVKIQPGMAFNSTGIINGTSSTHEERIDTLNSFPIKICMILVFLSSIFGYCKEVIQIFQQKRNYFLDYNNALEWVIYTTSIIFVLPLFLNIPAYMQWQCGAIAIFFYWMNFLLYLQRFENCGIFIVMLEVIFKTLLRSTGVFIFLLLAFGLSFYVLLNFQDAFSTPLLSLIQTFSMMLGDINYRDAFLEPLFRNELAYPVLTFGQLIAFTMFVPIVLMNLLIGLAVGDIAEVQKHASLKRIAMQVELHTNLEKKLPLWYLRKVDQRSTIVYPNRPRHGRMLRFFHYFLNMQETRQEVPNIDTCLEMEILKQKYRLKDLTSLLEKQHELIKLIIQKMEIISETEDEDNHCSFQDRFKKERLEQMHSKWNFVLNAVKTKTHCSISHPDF
human TRPV1, sequence (Q8NER1 whole entry): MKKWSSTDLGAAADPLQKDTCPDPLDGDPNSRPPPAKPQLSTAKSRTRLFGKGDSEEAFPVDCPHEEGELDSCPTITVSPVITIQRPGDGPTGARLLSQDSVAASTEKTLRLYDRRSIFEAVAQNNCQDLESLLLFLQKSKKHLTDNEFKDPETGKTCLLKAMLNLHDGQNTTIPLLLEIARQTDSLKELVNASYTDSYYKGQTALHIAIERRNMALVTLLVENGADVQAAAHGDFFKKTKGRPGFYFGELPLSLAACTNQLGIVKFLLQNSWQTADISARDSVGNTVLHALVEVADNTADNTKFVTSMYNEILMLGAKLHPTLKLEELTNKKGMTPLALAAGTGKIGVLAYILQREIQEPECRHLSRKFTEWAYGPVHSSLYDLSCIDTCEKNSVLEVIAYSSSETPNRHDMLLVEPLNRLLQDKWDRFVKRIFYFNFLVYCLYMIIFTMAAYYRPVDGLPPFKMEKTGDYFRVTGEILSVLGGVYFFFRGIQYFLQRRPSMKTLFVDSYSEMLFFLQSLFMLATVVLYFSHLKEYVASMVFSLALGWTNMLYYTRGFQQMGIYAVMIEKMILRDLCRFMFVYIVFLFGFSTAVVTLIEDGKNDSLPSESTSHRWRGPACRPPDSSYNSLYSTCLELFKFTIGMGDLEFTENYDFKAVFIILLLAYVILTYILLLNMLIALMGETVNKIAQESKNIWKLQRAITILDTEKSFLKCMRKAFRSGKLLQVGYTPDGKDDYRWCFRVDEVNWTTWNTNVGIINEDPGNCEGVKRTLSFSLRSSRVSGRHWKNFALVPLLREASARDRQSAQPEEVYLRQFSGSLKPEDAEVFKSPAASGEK

In the case of `CCCCCC(O)/C=C/C=O` (stereo not shown) [4-HNE, 4-hydroxynonenal], the “Response amplitude (% of K+)” value [1] is reported as 34%, the “capsaicin-sensitive DRG neurons that responded” value (rat DRG neurons [2]) is reported as “Approximately 50%” and the “Response amplitude (% of K+)” value [3] is reported as 61%. For the same molecule, the “membrane current in TRPA1 CHO cells” value (mouse TRPA1 [4]) was “evoked membrane currents”.
With `CCCCCC(=O)C=CC=O` [4-ONE, 4-oxo-2-nonenal] the “Response amplitude (% of K+)” value [1] was 34%, the “capsaicin-sensitive DRG neurons that responded” value (rat DRG neurons [2]) was “Approximately 50%” and the EC50 (mouse TRPA1 [5]) was 1.9 µM. For the same molecule, the “Response amplitude (% of K+)” value [3] was 89%.
In the case of `CCCCC/C=C\C=C1\C(=O)CC[C@@H]1C/C=C\CCCC(=O)O` [9,10-dihydro-15d-PGJ2], the “[Ca2+]i-increase in TRPA1 CHO cells” value (mouse TRPA1 [5]) is reported as “failed to elicit any significant [Ca^2+]i-increase”.
For `CCCCCC=CC=C1C(=O)C=C[C@@H]1CC=CCCCC(=O)O` [15d-PGJ2, 15-deoxy-Δ^12,14-prostaglandin J2], the “Response amplitude (% of K+)” value [1] was 47%, the “[Ca2+]i increase / membrane currents in untransfected CHO cells” value (untransfected CHO cells) was “had no effect” and the “[Ca2+]i increase / membrane currents in TRPV1 expressing CHO cells” value (human TRPV1) was “had no effect”. The “Response amplitude (% of K+)” value [3] was 63%, the “membrane current in TRPA1 CHO cells” value (mouse TRPA1 [4]) was “evoked inward currents” and the nocifensive/pain-related behaviour (wild-type mice) was “marked nocifensive behaviors”. The nocifensive/pain-related behaviour (trpa1-/- mice) was “greatly reduced or absent”.
For `C=CCN=C=S` [AITC, allyl isothiocyanate], the “Response amplitude (% of K+)” value [1] was 21%, the “Response amplitude (% of K+)” value [3] was 86% and the “percentage of rat nodose neurons responding with [Ca2+]i increase” value (rat nodose neurons) was 54.0%.
For `OO` [H2O2, hydrogen peroxide], the “Response amplitude (% of K+)” value [1] was 31%, the “capsaicin-sensitive DRG neurons that did not respond” value (rat DRG neurons [2]; rat DRG neurons, calcium imaging) was ~ 50% and the “currents in untransfected CHO cells” value (untransfected CHO cells; concentrations up to 100 mM) was “failed to evoke currents”. For the same molecule, the “reversal of [Ca2+]i response by dithiothreitol (DTT)” value (mouse TRPA1 [5]; DTT 1 mM) was “reversed”, the “EC50 lower / potency increased in Fe2+-loaded vs untreated cells” value (mouse TRPA1 [5]; TRPA1 CHO cells, after 90 s) was ~ 20 fold and 20 fold and the “concentrations that activate TRPA1” value (mouse TRPA1 [5]; extracellularly applied) was 50 to 100 µM. It also gave an EC50 (mouse TRPA1 [5]; read-out: EC50, increase in [Ca2+]i in Fe2+-loaded cells, TRPA1 CHO cells preloaded with 100 μM FeSO4 for 1 h, after 90 s) of 53 ± 6 µM, an EC50 (mouse TRPA1 [5]; read-out: EC50, increase in [Ca2+]i, TRPA1 CHO cells, after 90 s exposure) of 1200 ± 400 µM and an EC50 (mouse TRPA1 [5]; read-out: EC50, increase in [Ca2+]i, TRPA1 CHO cells, after 600 s exposure (plateau)) of 230 µM. For the same molecule, the “Response amplitude (% of K+)” value [3] was 70%, the “proportion of sensitive DRG neurons” value [6] was 30.1% and the “proportion of sensitive DRG neurons” value [7] was 31.8%. For the same molecule, the “reversal potential of evoked current” value (mouse TRPA1 [4]; TRPA1 CHO cells, voltage ramp, calcium-free solution) was roughly 0 mV, the single-channel chord conductance (mouse TRPA1 [4]; cell-attached patches, -100 to +100 mV) was 94 ± 3 pS and the “membrane current in TRPA1 CHO cells” value (mouse TRPA1 [4]) was “evoked an inward current”. The nocifensive/pain-related behaviour (wild-type mice) was “marked nocifensive behaviors”, the “percentage of rat nodose neurons responding with [Ca2+]i increase” value (rat nodose neurons) was 49.8% and the “capsaicin-sensitive nodose neurons that did not respond” value (rat nodose neurons; rat nodose neurons, calcium imaging) was ~ 30%. For the same molecule, the “reversal potential of evoked current” value (DRG neurons) was -6 mV and the nocifensive/pain-related behaviour (trpa1-/- mice) was “greatly reduced or absent”.
With `CCCCC[C@H](O)/C=C/[C@H]1C=CC(=O)[C@@H]1C/C=C\CCCC(=O)O` [PGA2] the “[Ca2+]i-increase in TRPA1 CHO cells” value (mouse TRPA1 [5]) was “failed to elicit any significant [Ca^2+]i-increase”.
With `O=C([O-])c1c(Cl)c(Cl)c(Cl)c(Cl)c1-c1c2cc(I)c(=O)c(I)c-2oc2c(I)c([O-])c(I)cc12.[Na+].[Na+]` [Rose Bengal] the TRPA1 activation (mouse TRPA1 [5]) was “activated”.
For `Cc1ccc(S(=O)(=O)NCl)cc1` [chloramine T], the TRPA1 activation (mouse TRPA1 [5]) was “activated”.
In the case of `CC1CCC(C(C)C)C(O)C1` (stereo not shown) [menthol], the “percentage of sensitive DRG neurons in DRG cultures” value (rat DRG neurons [8]) is listed as ~ 8%.
